Data from patent US9150575B2, “Piperidinylpyrazolopyridine derivative” (Daiichi Sankyo Company, Limited, priority 2012, dated 2015).
Where a name gives a salt, the structure may show the parent alone.

biological target: T1, LCAT (Homo sapiens, UniProt P04180); experiment: LCAT Activity Measurement (In Vitro); format: biochemical; conditions: EC50 of LCAT activation; HDL3 fraction from plasma of a healthy person as enzyme source and acceptor; [14C]cholesterol; 37° C., approximately 16 hours
T1 construct: The obtained fraction was dialyzed against phosphate-buffered saline (pH 7.4) and used as an enzyme source and an acceptor for LCAT; from tissue; host or cells: HDL3 fraction (1.125<specific gravity<1.210 g/mL) of plasma from a healthy person
T1 sequence (P04180 25-440): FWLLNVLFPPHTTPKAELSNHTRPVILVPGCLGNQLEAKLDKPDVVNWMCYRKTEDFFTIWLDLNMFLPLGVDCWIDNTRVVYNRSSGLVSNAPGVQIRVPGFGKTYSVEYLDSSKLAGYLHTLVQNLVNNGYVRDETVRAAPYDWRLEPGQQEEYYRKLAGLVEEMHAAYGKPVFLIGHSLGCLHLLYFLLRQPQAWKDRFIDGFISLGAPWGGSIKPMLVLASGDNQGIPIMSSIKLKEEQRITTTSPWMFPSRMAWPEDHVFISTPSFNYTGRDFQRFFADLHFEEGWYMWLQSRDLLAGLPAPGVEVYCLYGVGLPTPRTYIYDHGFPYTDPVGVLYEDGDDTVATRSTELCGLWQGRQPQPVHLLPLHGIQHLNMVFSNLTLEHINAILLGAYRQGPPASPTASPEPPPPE
Method in brief: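 Human plasma HDL3 (1 mg/mL, PBS pH 7.4) served as enzyme and acceptor with [14C]cholesterol, 0.5 mM DTNB, 12.5 mM mercaptoethanol and 0.6% BSA; compounds in DMSO, incubated ~16 h at 37 °C. Cholesterol oleate radioactivity quantified after extraction and TLC; EC50 of activation fitted relative to no-drug control.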

Structure (SMILES) | EC50
O=C1CC(O)(C(F)(F)F)c2c(C3CCN(c4ncc(C(F)(F)F)cc4F)CC3)n[nH]c2N1 (centres unmarked) [Example 96, 3-{1-[3-Fluoro-5-(trifluoromethyl)pyridin-2-yl]piperidin-4-yl}-4-hydroxy-4-(trifluoromethyl)-1,4,5,7-tetrahydro-6H-pyrazolo[3,4-b]pyridin-6-one] | 220 nM
CC(C)c1ccc(N2CCC(c3n[nH]c4c3C(O)(C(F)(F)F)CC(=O)N4)CC2)nc1 (centres unmarked) [Example 64, 4-Hydroxy-3-{1-[5-isopropylpyridin-2-yl]piperidin-4-yl]-4-(trifluoromethyl)-1,4,5,7-tetrahydro-6H-pyrazolo[3,4-b]pyridin-6-one] | 56 nM
CC(C)Oc1ccc(N2CCC(c3n[nH]c4c3C(O)(C(F)(F)F)CC(=O)N4)CC2)cn1 (centres unmarked) [Example 57, 4-Hydroxy-3-{1-[6-(propan-2-yloxy)pyridin-3-yl]piperidin-4-yl}-4-(trifluoromethyl)-1,4,5,7-tetrahydro-6H-pyrazolo[3,4-b]pyridin-6-one] | 100 nM
COc1ccc(N2CCC(c3n[nH]c4c3C(O)(C(F)(F)F)CC(=O)N4)CC2)cn1 (centres unmarked) [Example 32, 4-Hydroxy-3-[1-(6-methoxypyridin-3-yl)piperidin-4-yl]-4-(trifluoromethyl)-1,4,5,7-tetrahydro-6H-pyrazolo[3,4-b]pyridin-6-one] | 300 nM
CC(C)c1nc(N2CCC(c3n[nH]c4c3C(O)(C(F)(F)F)CC(=O)N4)CC2)cc(C(F)(F)F)n1 (centres unmarked) [Example 88, 4-Hydroxy-3-{1-[2-(propan-2-yl)-6-(trifluoromethyl)pyrimidin-4-yl]piperidin-4-yl}-4-(trifluoromethyl)-1,4,5,7-tetrahydro-6H-pyrazolo[3,4-b]pyridin-6-one] | 88 nM
CN(C)C(=O)c1cc(N2CCC(c3n[nH]c4c3C(O)(C(F)(F)F)CC(=O)N4)CC2)ncc1C(F)(F)F (centres unmarked) [Example 84, 2-{4-[4-Hydroxy-6-oxo-4-(trifluoromethyl)-4,5,6,7-tetrahydro-1H-pyrazolo[3,4-b]pyridin-3-yl]piperidin-1-yl}-N,N-dimethyl-5-(trifluoromethyl)pyridine-4-carboxamide] | 270 nM
CC(C)Oc1ccc(N2CCC(c3n[nH]c4c3C(O)(C(F)(F)F)CC(=O)N4)CC2)nn1 (centres unmarked) [Example 18, 4-Hydroxy-3-{1-[6-(propan-2-yloxy)pyridazin-3-yl]piperidin-4-yl}-4-(trifluoromethyl)-1,4,5,7-tetrahydro-6H-pyrazolo[3,4-b]pyridin-6-one hydrochloride] | 101 nM
COc1cccc(N2CCC(c3n[nH]c4c3C(O)(C(F)(F)F)CC(=O)N4)CC2)n1 (centres unmarked) [Example 12, 4-Hydroxy-3-[1-(6-methoxypyridin-2-yl)piperidin-4-yl]-4-(trifluoromethyl)-1,4,5,7-tetrahydro-6H-pyrazolo[3,4-b]pyridin-6-one] | 54 nM
CN(C)c1ncc(N2CCC(c3n[nH]c4c3C(O)(C(F)(F)F)CC(=O)N4)CC2)cn1 (centres unmarked) [Example 67, 3-{1-[2-(Dimethylamino)pyrimidin-5-yl]piperidin-4-yl}-4-hydroxy-4-(trifluoromethyl)-1,4,5,7-tetrahydro-6H-pyrazolo[3,4-b]pyridin-6-one] | 330 nM
Cc1cc(N2CCC(c3n[nH]c4c3C(O)(C(F)(F)F)CC(=O)N4)CC2)ncc1C#N (centres unmarked) [Example 42, 6-{4-[4-Hydroxy-6-oxo-4-(trifluoromethyl)-4,5,6,7-tetrahydro-1H-pyrazolo[3,4-b]pyridin-3-yl]piperidin-1-yl}-4-methylpyridine-3-carbonitrile] | 140 nM
N#Cc1nc(N2CCC(c3n[nH]c4c3C(O)(C(F)(F)F)CC(=O)N4)CC2)ccc1C(F)(F)F (centres unmarked) [Example 94, 6-{4-[4-Hydroxy-6-oxo-4-(trifluoromethyl)-4,5,6,7-tetrahydro-1H-pyrazolo[3,4-b]pyridin-3-yl]piperidin-1-yl}-3-(trifluoro)pyridine-2-carbonitrile] | 15 nM
N#Cc1cnc(N2CCC(c3n[nH]c4c3C(O)(C(F)(F)F)CC(=O)N4)CC2)cc1C(F)(F)F (centres unmarked) [Example 95, 6-{4-[4-Hydroxy-6-oxo-4-(trifluoromethyl)-4,5,6,7-tetrahydro-1H-pyrazolo[3,4-b]pyridin-3-yl]piperidin-1-yl}-4-(trifluoromethyl)pyridine-3-carbonitrile] | 37 nM
O=C1CC(O)(C(F)(F)F)c2c(C3CCN(c4cnc(C(F)(F)F)cn4)CC3)n[nH]c2N1 (centres unmarked) [Example 46, 4-Hydroxy-4-(trifluoromethyl)-3-{1-[5-(trifluoromethyl)pyrazin-2-yl]piperidin-4-yl}-1,4,5,7-tetrahydro-6H-pyrazolo[3,4-b]pyridin-6-one] | 12 nM
COc1cncc(N2CCC(c3n[nH]c4c3C(O)(C(F)(F)F)CC(=O)N4)CC2)c1 (centres unmarked) [Example 40, 4-Hydroxy-3-[1-(5-methoxypyridin-3-yl)piperidin-4-yl]-4-(trifluoromethyl)-1,4,5,7-tetrahydro-6H-pyrazolo[3,4-b]pyridin-6-one] | 1710 nM
O=C1CC(O)(C(F)(F)F)c2c(C3CCN(c4cncc(C(F)(F)F)c4)CC3)n[nH]c2N1 (centres unmarked) [Example 53, 4-Hydroxy-4-(trifluoromethyl)-3-{1-[5-(trifluoromethyl)pyridin-3-yl]piperidin-4-yl}-1,4,5,7-tetrahydro-6H-pyrazolo[3,4-b]pyridin-6-one] | 50 nM
Cc1ccc(N2CCC(c3n[nH]c4c3C(O)(C(F)(F)F)CC(=O)N4)CC2)nc1 (centres unmarked) [Example 4, 4-Hydroxy-3-[1-(5-methylpyridin-2-yl)piperidin-4-yl]-4-(trifluoromethyl)-1,4,5,7-tetrahydro-6H-pyrazolo[3,4-b]pyridin-6-one] | 250 nM
Cc1nc(N2CCC(c3n[nH]c4c3C(O)(C(F)(F)F)CC(=O)N4)CC2)cc(C(F)(F)F)n1 (centres unmarked) [Example 87, 4-Hydroxy-3-{1-[2-methyl-6-(trifluoromethyl)pyrimidin-4-yl]piperidin-4-yl}-4-(trifluoromethyl)-1,4,5,7-tetrahydro-6H-pyrazolo[3,4-b]pyridin-6-one] | 300 nM
O=C1CC(O)(C(F)(F)F)c2c(C3CCN(c4ccc(OC(F)F)cn4)CC3)n[nH]c2N1 (centres unmarked) [Example 51, 3-{1-[5-(Difluoromethoxy)pyridin-2-yl]piperidin-4-yl}-4-hydroxy-4-(trifluoromethyl)-1,4,5,7-tetrahydro-6H-pyrazolo[3,4-b]pyridin-6-one] | 81 nM
O=C1CC(O)(C(F)(F)F)c2c(C3CCN(c4nc5ccccc5o4)CC3)n[nH]c2N1 (centres unmarked) [Example 24, 3-[1-(1,3-Benzoxazol-2-yl)piperidin-4-yl]-4-hydroxy-4-(trifluoromethyl)-1,4,5,7-tetrahydro-6H-pyrazolo[3,4-b]pyridin-6-one] | 150 nM
CC(C)Oc1ccc(N2CCC(c3n[nH]c4c3C(O)(C(F)(F)F)CC(=O)N4)CC2)nn1 (centres unmarked) [Example 17, 4-Hydroxy-3-{1-[6-(propan-2-yloxy)pyridazin-3-yl]piperidin-4-yl}-4-(trifluoromethyl)-1,4,5,7-tetrahydro-6H-pyrazolo[3,4-b]pyridin-6-one] | 64 nM
O=C1CC(O)(C(F)(F)F)c2c(C3CCN(c4ccc(C5CC5)cn4)CC3)n[nH]c2N1 (centres unmarked) [Example 99, 3-[1-(5-Cyclopropylpyridin-2-yl)piperidin-4-yl]-4-hydroxy-4-(trifluoromethyl)-1,4,5,7-tetrahydro-6H-pyrazolo[3,4-b]pyridin-6-one] | 75 nM
O=C1CC(O)(C(F)(F)F)c2c(C3CCN(c4cnc(OC(F)F)c(OC(F)F)c4)CC3)n[nH]c2N1 (centres unmarked) [Example 63, 3-{1-[5,6-bis(Difluoromethoxy)pyridin-3-yl]piperidin-4-yl}-4-hydroxy-4-(trifluoromethyl)-1,4,5,7-tetrahydro-6H-pyrazolo[3,4-b]pyridin-6-one] | 31 nM
O=C1CC(O)(C(F)(F)F)c2c(C3CCN(c4ncc(C(F)(F)F)cn4)CC3)n[nH]c2N1 (centres unmarked) [Example 44, 4-Hydroxy-4-(trifluoromethyl)-3-{1-[5-(trifluoromethyl)pyrimidin-2-yl]piperidin-4-yl}-1,4,5,7-tetrahydro-6H-pyrazolo[3,4-b]pyridin-6-one] | 360 nM
O=C1CC(O)(C(F)(F)F)c2c(C3CCN(c4cc(I)c(C(F)(F)F)cn4)CC3)n[nH]c2N1 (centres unmarked) [Example 102, 4-Hydroxy-3-{1-[4-iodo-5-(trifluoromethyl)pyridin-2-yl]piperidin-4-yl}-4-(trifluoromethyl)-1,4,5,7-tetrahydro-6H-pyrazolo[3,4-b]pyridin-6-one] | 21 nM
CN(C)C(=O)c1nc(N2CCC(c3n[nH]c4c3C(O)(C(F)(F)F)CC(=O)N4)CC2)ccc1C(F)(F)F (centres unmarked) [Example 83, 6-{4-[4-Hydroxy-6-oxo-4-(trifluoromethyl)-4,5,6,7-tetrahydro-1H-pyrazolo[3,4-b]pyridin-3-yl]piperidin-1-yl}-N,N-dimethyl-3-(trifluoromethyl)pyridine-2-carboxamide] | 420 nM
O=C1CC(O)(C(F)(F)F)c2c(C3CCN(c4nccc(C(F)(F)F)n4)CC3)n[nH]c2N1 (centres unmarked) [Example 80, 4-Hydroxy-4-(trifluoromethyl)-3-{1-[4-(trifluoromethyl)pyrimidin-2-yl]piperidin-4-yl}-1,4,5,7-tetrahydro-6H-pyrazolo[3,4-b]pyridin-6-one] | 380 nM
